Tested on: 494315-158-R-J1-PDC complex spheroid growth, percent test/control
Test: Anticancer human tumor 494315-158-R-J1-PDC patient-derived soft tissue sarcoma cell line growth inhibition [Asc]
Conditions: for IC50: curve of first compound; for viability, T/C: stronger effect = lower value
Summary of the method: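 Complex spheroids combining tumor cells with HUVEC endothelial cells and human MSCs, at 37 degrees C, 5% CO2; agents tested alone or combined, half-log dilutions from at or near clinical Cmax, or 10 microM if Cmax unknown.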

[1] = second compound 0.03 µM, first compound 0.00316 µM
[2] = second compound 0.03 µM, first compound 0.01 µM
[3] = second compound 0.03 µM, first compound 0.0316 µM
[4] = second compound 0.03 µM, first compound 0.1 µM
[5] = second compound 0.03 µM, first compound 0.316 µM
[6] = second compound 0.03 µM, first compound 1 µM
[7] = second compound 0.0949 µM, first compound 0.00316 µM
[8] = second compound 0.0949 µM, first compound 0.01 µM
[9] = second compound 0.0949 µM, first compound 0.0316 µM
[10] = second compound 0.0949 µM, first compound 0.1 µM
[11] = second compound 0.0949 µM, first compound 0.316 µM
[12] = second compound 0.0949 µM, first compound 1 µM
[13] = second compound 0.3 µM, first compound 0.00316 µM
[14] = second compound 0.3 µM, first compound 0.01 µM
[15] = second compound 0.3 µM, first compound 0.0316 µM
[16] = second compound 0.3 µM, first compound 0.1 µM
[17] = second compound 0.3 µM, first compound 0.316 µM
[18] = second compound 0.3 µM, first compound 1 µM
[19] = second compound 0.949 µM, first compound 0.00316 µM
[20] = second compound 0.949 µM, first compound 0.01 µM
[21] = second compound 0.949 µM, first compound 0.0316 µM
[22] = second compound 0.949 µM, first compound 0.1 µM
[23] = second compound 0.949 µM, first compound 0.316 µM
[24] = second compound 0.949 µM, first compound 1 µM
[25] = second compound 3 µM, first compound 0.00316 µM
[26] = second compound 3 µM, first compound 0.01 µM
[27] = second compound 3 µM, first compound 0.0316 µM
[28] = second compound 3 µM, first compound 0.1 µM
[29] = second compound 3 µM, first compound 0.316 µM
[30] = second compound 3 µM, first compound 1 µM
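Note: compound exposure lasted seven days after spheroids formed for three days.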

**Q.** For O=C(c1cc(Cc2n[nH]c(=O)c3ccccc23)ccc1F)N1CCN(C(=O)C2CC2)CC1 + Cc1c(S(C)(=O)=O)c(-c2cc(F)cc(N3CCN(c4ccc(NS(=O)(=O)c5ccc(NC(CCN6CCC(C(=O)OCCCP(=O)(O)O)CC6)CSc6ccccc6)c(S(=O)(=O)C(F)(F)F)c5)cc4)CC3)c2)c(-c2ccc(Cl)cc2)n1C(C)C, which IC50 (second compound 0.1 µM) is on record?
**A.** 3040 nM

**Q.** And the IC50 (second compound 0.316 µM)?
**A.** 1620 nM

**Q.** And the IC50 (second compound 1 µM)?
**A.** 1640 nM

**Q.** And the IC50 (second compound 3.16 µM)?
**A.** 1080 nM

**Q.** And the IC50 (second compound 10 µM)?
**A.** 2260 nM

**Q.** What about the viability, T/C (second compound 0.1 µM, first compound 0.0316 µM) of the same molecule?
**A.** 86%

**Q.** What about the viability, T/C (second compound 0.1 µM, first compound 0.1 µM) of the same molecule?
**A.** 76.2%

**Q.** What about the viability, T/C (second compound 0.1 µM, first compound 0.316 µM) of the same molecule?
**A.** 69.2%

**Q.** And the viability, T/C (second compound 0.1 µM, first compound 1 µM)?
**A.** 63.5%

**Q.** And the viability, T/C (second compound 0.1 µM, first compound 3.16 µM)?
**A.** 49.5%

**Q.** What about the viability, T/C (second compound 0.1 µM, first compound 10 µM) of the same molecule?
**A.** 36.3%

**Q.** What about the viability, T/C (second compound 0.316 µM, first compound 0.0316 µM) of the same molecule?
**A.** 71.7%

**Q.** And the viability, T/C (second compound 0.316 µM, first compound 0.1 µM)?
**A.** 66.4%

**Q.** What about the viability, T/C (second compound 0.316 µM, first compound 0.316 µM) of the same molecule?
**A.** 59.7%

**Q.** What about the viability, T/C (second compound 0.316 µM, first compound 1 µM) of the same molecule?
**A.** 57.6%

**Q.** What about the viability, T/C (second compound 0.316 µM, first compound 3.16 µM) of the same molecule?
**A.** 42.5%

**Q.** What about the viability, T/C (second compound 0.316 µM, first compound 10 µM) of the same molecule?
**A.** 33%

**Q.** And the viability, T/C (second compound 1 µM, first compound 0.0316 µM)?
**A.** 62.7%

**Q.** What about the viability, T/C (second compound 1 µM, first compound 0.1 µM) of the same molecule?
**A.** 70.9%

**Q.** And the viability, T/C (second compound 1 µM, first compound 0.316 µM)?
**A.** 62%

**Q.** And the viability, T/C (second compound 1 µM, first compound 1 µM)?
**A.** 57.8%

**Q.** What about the viability, T/C (second compound 1 µM, first compound 3.16 µM) of the same molecule?
**A.** 40.1%

**Q.** What about the viability, T/C (second compound 1 µM, first compound 10 µM) of the same molecule?
**A.** 23.4%

**Q.** What about the viability, T/C (second compound 3.16 µM, first compound 0.0316 µM) of the same molecule?
**A.** 48.1%

**Q.** What about the viability, T/C (second compound 3.16 µM, first compound 0.1 µM) of the same molecule?
**A.** 51.8%

**Q.** What about the viability, T/C (second compound 3.16 µM, first compound 0.316 µM) of the same molecule?
**A.** 53.5%

**Q.** And the viability, T/C (second compound 3.16 µM, first compound 1 µM)?
**A.** 51%

**Q.** And the viability, T/C (second compound 3.16 µM, first compound 3.16 µM)?
**A.** 37%

**Q.** And the viability, T/C (second compound 3.16 µM, first compound 10 µM)?
**A.** 22.2%

**Q.** What about the viability, T/C (second compound 10 µM, first compound 0.0316 µM) of the same molecule?
**A.** 69.5%

**Q.** And the viability, T/C (second compound 10 µM, first compound 0.1 µM)?
**A.** 77.1%

**Q.** What about the viability, T/C (second compound 10 µM, first compound 0.316 µM) of the same molecule?
**A.** 73.4%

**Q.** And the viability, T/C (second compound 10 µM, first compound 1 µM)?
**A.** 58.5%

**Q.** What about the viability, T/C (second compound 10 µM, first compound 3.16 µM) of the same molecule?
**A.** 46.8%

**Q.** What about the viability, T/C (second compound 10 µM, first compound 10 µM) of the same molecule?
**A.** 29.3%

**Q.** COc1c(OCCCN2CCOCC2)ccc2c3n(c(=NC(=O)c4cnc(N)nc4)nc12)CCN3 + CCN1C(C(=O)NC23CCC(C(=O)O)(CC2)CC3)C(c2cccc(Cl)c2F)C2(C(=O)Nc3cc(Cl)ccc32)C12CCCCC2 was tested. Which IC50 (second compound 0.03 µM) did it give?
**A.** 45.8 nM

**Q.** And the IC50 (second compound 0.0949 µM)?
**A.** 39 nM

**Q.** What about the IC50 (second compound 0.3 µM) of the same molecule?
**A.** 43.6 nM

**Q.** What about the IC50 (second compound 0.949 µM) of the same molecule?
**A.** 35.6 nM

**Q.** What about the IC50 (second compound 3 µM) of the same molecule?
**A.** 46.2 nM

**Q.** And the viability, T/C [1]?
**A.** 84%

**Q.** And the viability, T/C [2]?
**A.** 80.5%

**Q.** And the viability, T/C [3]?
**A.** 58.5%

**Q.** And the viability, T/C [4]?
**A.** 30.8%

**Q.** What about the viability, T/C [5] of the same molecule?
**A.** 20.5%

**Q.** What about the viability, T/C [6] of the same molecule?
**A.** 15.4%

**Q.** And the viability, T/C [7]?
**A.** 78.7%

**Q.** What about the viability, T/C [8] of the same molecule?
**A.** 73.7%

**Q.** What about the viability, T/C [9] of the same molecule?
**A.** 54%

**Q.** What about the viability, T/C [10] of the same molecule?
**A.** 30.4%

**Q.** And the viability, T/C [11]?
**A.** 22%

**Q.** And the viability, T/C [12]?
**A.** 15.4%

**Q.** And the viability, T/C [13]?
**A.** 91.2%

**Q.** And the viability, T/C [14]?
**A.** 90.4%

**Q.** And the viability, T/C [15]?
**A.** 49.9%

**Q.** And the viability, T/C [16]?
**A.** 38%

**Q.** And the viability, T/C [17]?
**A.** 22.3%

**Q.** What about the viability, T/C [18] of the same molecule?
**A.** 16.7%

**Q.** What about the viability, T/C [19] of the same molecule?
**A.** 93.3%

**Q.** And the viability, T/C [20]?
**A.** 81.6%

**Q.** And the viability, T/C [21]?
**A.** 50.6%

**Q.** And the viability, T/C [22]?
**A.** 30.7%

**Q.** And the viability, T/C [23]?
**A.** 19.2%

**Q.** And the viability, T/C [24]?
**A.** 16.4%

**Q.** And the viability, T/C [25]?
**A.** 112%

**Q.** What about the viability, T/C [26] of the same molecule?
**A.** 86.5%

**Q.** And the viability, T/C [27]?
**A.** 59.6%

**Q.** And the viability, T/C [28]?
**A.** 32.1%

**Q.** What about the viability, T/C [29] of the same molecule?
**A.** 22.6%

**Q.** And the viability, T/C [30]?
**A.** 15.2%

**Q.** Which results are given for CNC(C)C(=O)NC1CN(S(=O)(=O)c2cccc(S(=O)(=O)N3CCC4CCC(C(=O)NC(c5ccccc5)c5ccccc5)N4C(=O)C(NC(=O)C(C)NC)C3)c2)CCC2CCC(C(=O)NC(c3ccccc3)c3ccccc3)N2C1=O (stereo not given) + CCN1C(C(=O)NC23CCC(C(=O)O)(CC2)CC3)C(c2cccc(Cl)c2F)C2(C(=O)Nc3cc(Cl)ccc32)C12CCCCC2?
**A.** IC50 (second compound 0.03 µM): 42.3 nM; IC50 (second compound 0.0949 µM): 38.1 nM; IC50 (second compound 0.3 µM): 41.1 nM; IC50 (second compound 0.949 µM): 83.4 nM; IC50 (second compound 3 µM): 36.7 nM; viability, T/C [1]: 87.4%; viability, T/C [2]: 65.2%; viability, T/C [3]: 54%; viability, T/C [4]: 39.5%; viability, T/C [5]: 43.4%; viability, T/C [6]: 31.9%; viability, T/C [7]: 66.8%; viability, T/C [8]: 72.6%; viability, T/C [9]: 45.8%; viability, T/C [10]: 42%; viability, T/C [11]: 31.1%; viability, T/C [12]: 26.3%; viability, T/C [13]: 70.9%; viability, T/C [14]: 63.6%; viability, T/C [15]: 51.9%; viability, T/C [16]: 43.9%; viability, T/C [17]: 36.7%; viability, T/C [18]: 38.5%; viability, T/C [19]: 71%; viability, T/C [20]: 62.3%; viability, T/C [21]: 60.6%; viability, T/C [22]: 49.2%; viability, T/C [23]: 36.7%; viability, T/C [24]: 34.4%; viability, T/C [25]: 67.6%; viability, T/C [26]: 61.7%; viability, T/C [27]: 51.2%; viability, T/C [28]: 41.1%; viability, T/C [29]: 28.4%; viability, T/C [30]: 31.4%

— PubChem BioAssay AID1963420 (Molecular Pharmacology Branch, DTP, NCI, 2024)
